Experiment [1] relates to human cord blood derived hematopoietic stem and progenitor cells (hHSPCs). The experiment is described as follows: Mitochondrial membrane potential (TMRM) in cultured hHSPCs (CD34+), flow cytometry. The format is cell-based. To be noted: days 3, 5 and 7, increasing doses of UroA. From the text: We then looked at the effect of UroA on human cord blood derived hematopoietic stem and progenitor cells (hHSPCs) (FIG. 1B). Cryopreserved hHSPCs (CD34+) were thawed and cultured in basal media (Stemspan+SCF+FLT3L+TPO+LDLP+Penicillin/Streptomycin) supplemented with different concentrations of UroA. Aliquots of cells were harvested at days 3, 5 and 7, followed by staining for CD34 and TMRM, and analysed by flow cytometry.
Cryopreserved CD34+ cells isolated from foetal liver/cord blood were thawed and cultured in vitro in StemSpan (Stem cell tech) media supplemented with hSCF (100 ng/ml), hFLT3L (100 ng/ml), hTPO (50 ng/ml), hLDLP (10 μg/ml) and different concentrations of UroA (dissolved in DMSO) were added; an equal amount of DMSO was added to the control well. For longer culture periods half of the media was replenished every 2nd or 3rd day.
Human HSCs already in culture were incubated at 37° C. for 1 hour with 200 nM TMRM (Invitrogen). Cells were then washed with FACS buffer, followed by staining with CD34 antibody for 1 hour at 4° C. Cells were washed with FACS buffer and analysed by flow cytometry on a BD LSR II.
In general terms: A flow cytometer gives signals particle by particle.

The test system of experiment [2] is Human Cord-blood derived HSCPs. Description: Limiting transplantation experiment: survival of irradiated adult NSG mice given UroA-cultured HSPCs. In kind it is in vivo. The following applies: HSPCs cultured three days with 50 μM UroA, 40,000 cells per irradiated adult NSG mouse; followed eight months; especially early post-transplant phases. How it is done: A) Human cord blood derived HSPCs were cultured in basal media with or without 50 μM UroA. Three days post culture cells were counted and limiting dose (40,000 cells) was injected in each irradiated recipient adult NSG mouse and survival was monitored over several months.
In order to check if a short in vitro treatment with UroA could improve the survival of irradiated recipients post transplantation we designed a limiting transplantation experiment. Human Cord-blood derived HSCPs were cultured for three days in the absence or presence of UroA. Post culture cells were counted and 40,000 cells were injected in each recipient mouse (irradiated NSG adult mice). We followed these mice for several months to check for post transplantation survival.

In experiment [3] the test system is mHSCs. The experiment is described as follows: In vivo reconstitution by UroA-cultured mHSCs in lethally irradiated recipient mice. The following applies: mHSCs cultured 3 days with 20 μM UroA, injected into lethally irradiated mice. Details: species or system mouse. How it is done: Having previously shown that lowering mitochondrial membrane potential enhances HSC function (Vannini, N. et al. (2016) Nat Commun 7: 13125), we asked if UroA treatment improves in vivo reconstitution potential of HSCs. To that end, we cultured freshly isolated mHSCs in basal media without or with UroA (20 μM). At the end of the culture period (3 days) cells were counted and injected into lethally irradiated recipient mice (FIG. 2A).
(§1) Murine HSCs were sorted into 1.5 ml Eppendorf tubes and were cultured in Stemline II (SIGMA) supplemented with 100 ng/ml SCF (R&D) and 2 ng/ml Flt3 (R&D). Different concentrations as indicated of UroA (dissolved in DMSO) were added; an equal amount of DMSO was added to the control well.
C57131/6 Ly5.2 mice were lethally irradiated with a total 8 Gy dose in a gamma radiator 24 h before transplant. Mice were injected with 200 donor cells post culture derived from C57131/6 Ly5.1 mice and 200,000 competitor cells derived from C57131/6 Ly5.1/5.2 mice, via tail-vein injection. Peripheral blood was collected every few weeks to determine the percentage of chimerism by FACS analysis.

For experiment [4], the system named is mHSCs. The experiment is described as follows: QPCR gene expression analysis on cultured mHSCs. In kind it is cell-based, mouse. The following applies: mHSCs cultured with 20 μM UroA versus without. How it is done:
To have analyse the molecular mechanisms by which UroA enhances HSC function, we performed gene expression analysis on mHSCs cultured in basal media with or without UroA (20 μM).
RNA was extracted from HSCs post culture using ZR RNA MicroPrep (Zymo Research) and RNA extraction was performed accordingly to the manufacturer's instructions. RNA was retrotranscribed to cDNA with 1st strand cDNA kit (TAKARA) as per the manufacturer's instructions.
For qPCR, 0.5 μl of cDNA, 5 μl of Power Syber Green mastermix (Applied Biosystem) and 500 nM of primers were used to a final volume of 10 μl for each reaction. The reactions were performed on the 7900HT system (Applied Biosystem).

Experiment [5] has as its system cord blood derived human HSPCs. Description: Colony Forming Unit (CFU) assay in methylcellulose. The format is cell-based. To be noted: hHSPCs cultured 7 days with 50 μM UroA; colonies counted 15 days post plating; versus control. As to the method: Next, we cultured cord blood derived human HSPCs without or with UroA (50 μM) and performed two functional assays: Colony Forming Unit (CFU) assay—7 days post culture and in vivo transplantation assay in new born NSG-SGM3 pups—5 days post culture (FIG. 2B). […] Cryopreserved CD34+ cells isolated from foetal liver/cord blood were thawed and cultured in vitro in StemSpan (Stem cell tech) media supplemented with hSCF (100 ng/ml), hFLT3L (100 ng/ml), hTPO (50 ng/ml), hLDLP (10 μg/ml) and different concentrations of UroA (dissolved in DMSO) were added; an equal amount of DMSO was added to the control well. For longer culture periods half of the media was replenished every 2nd or 3rd day. CFU assays were carried out using H4434 (Stem cell tech) as per the manufacturer's instructions. 1000 cells from each well were plated in duplicate. Colonies were counted 15 days post plating using Stem Vision (Stem cell tech).

For experiment [6], the system named is bone marrow derived mouse HSCs (mHSCs). Description: Mitochondrial membrane potential (TMRM) and mitochondrial mass (Mitotracker) in cultured mHSCs, flow cytometry. The format is cell-based. How it is done:
We first tested the effect of UroA on bone marrow derived mouse HSCs (mHSCs) (FIG. 1A). Freshly isolated mHSCs (LKS CD150+CD48-) were cultured in basal media (Stemline+SCF+FLT3L+Penicillin/Streptomycin) supplemented with different concentrations of UroA. Cells were harvested at day 3 and stained with tetramethylrhodamine methyl ester (TMRM; to measure mitochondria membrane potential) and Mitotracker (to measure mitochondrial mass), and analysed by flow cytometry.
Flow cytometry analysis was performed on freshly isolated bone marrow (BM) from C571316 mice. BM was extracted from crushed femora and tibia. Cell suspension was filtered through a 70 μm cell strainer and erythroid cells were eliminated by incubation with red blood cell lysis buffer (eBioscences). Isolation and stains were performed in ice-cold PBS 1 mM EDTA. Lineage positive cells were then removed with a magnetic lineage depletion kit (BD biosciences). Cell suspensions were then stained with specific antibodies for the stem cell compartment and sorted by FACS (BD FACS Aria 111) into 1.5 ml Eppendorf tubes.
as §1
Mouse HSCs already in culture were incubated at 37° C. for 1 hour with 200 nM tetramethylrhodamine methyl ester (TMRM; Invitrogen) and 100 nM Mitotracker green. Cells were then washed with FACS buffer and analysed by flow cytometry on a BD LSR II.

In experiment [7] the test system is cord blood derived human HSPCs. Description: In vivo transplantation assay of UroA-cultured hHSPCs in new born NSG-SGM3 pups. To be noted: hHSPCs cultured 5 days with 50 μM UroA. As to the method: Next, we cultured cord blood derived human HSPCs without or with UroA (50 μM) and performed two functional assays: Colony Forming Unit (CFU) assay—7 days post culture and in vivo transplantation assay in new born NSG-SGM3 pups—5 days post culture (FIG. 2B). […] Cryopreserved CD34+ cells isolated from foetal liver/cord blood were thawed and cultured in vitro in StemSpan (Stem cell tech) media supplemented with hSCF (100 ng/ml), hFLT3L (100 ng/ml), hTPO (50 ng/ml), hLDLP (10 μg/ml) and different concentrations of UroA (dissolved in DMSO) were added; an equal amount of DMSO was added to the control well. For longer culture periods half of the media was replenished every 2nd or 3rd day. NSG mice were purchased from Jackson Laboratory, bred and maintained under pathogen-free conditions in-house. For transplantation, one day old NSG pups were irradiated with 1 Gy (RS-2000, RAD SOURCE) and a few hours later injected intrahepatically with in vitro expanded HSCs. Each pup was injected with a cell mass derived from an initial 50,000 CD34+ cells post in vitro culture. Mice were bled at 12 weeks to estimate human reconstitution levels (% human CD45+ cells) in the peripheral blood. Antibody combinations were used to further estimate human B cells, T cells, monocytes, neutrophils and NK cells.

The test system of the next experiment is human HSCs. To be noted: culture media supplemented with nicotinamide riboside; cited from earlier work.

For the molecule `O=c1oc2cc(O)ccc2c2ccc(O)cc12` [UroA, 3,8-dihydroxyurolithin], in experiment [1], the “TMRM signal (Median Fluorescence Intensity, MFI)” value was “concomitant decrease of TMRM signal” and the “proportions of cells in the TMRM low gate” value was “increasing proportions of cells in the TMRM^low gate”. For the same molecule, the “post transplantation survival of recipient mice” value in experiment [2] is recorded as “significant improvement in survival”. Besides, the “reconstitution in myeloid and lymphoid lineages of the blood” value in the experiment on mHSCs [3] was “This trend was reflected in both the myeloid and lymphoid lineages”. For the same molecule, the “blood reconstitution levels of recipients” value in the experiment on mHSCs [3] (versus cells cultured without UroA) is reported as “higher reconstitution levels”. In the experiment on mHSCs [4], the “expression of ROS protection genes (Foxo1, SOD2), fold change (delta delta CT)” value is “increased expression”; the “expression of autophagy genes (ATGS, PARK2), fold change (delta delta CT)” value is “increased expression”; the “expression of glycolysis genes (HK2, Glut1), fold change (delta delta CT)” value is recorded as “increased expression”. In addition, the “numbers of colonies (CFU assay)” value in experiment [5] is listed as “significantly higher numbers of colonies”. Also, in experiment [6] (mHSCs (LKS CD150+CD48-), day 3 of culture, increasing doses of UroA), the “proportion of cells in the TMRM low gate” value is “step-wise increase”. For the same molecule, in experiment [6] (mHSCs, day 3, 20 μM UroA), the “mitochondrial mass (Mitotracker staining)” value was “significant reduction”. The “mitochondrial mass (Mitotracker staining)” value in experiment [6] (mHSCs, day 3, all concentrations of UroA) is reported as “decrease in the mitochondrial mass”. Besides, the “TMRM fluorescent intensity (Mean Fluorescence Intensity, MFI)” value in experiment [6] (mHSCs, day 3 of culture, increasing doses of UroA) was “significant lowering”. Moreover, the “human cell numbers in blood cell lineages” value in experiment [7] (NSG-SGM3 mice, primarily lymphoid lineage (T and B cells)) is “higher human cell numbers”. In experiment [7] (transplanted in irradiated NSG-SGM3 pups), the “human engraftment (proportion and absolute numbers) in blood” value is “increased human engraftment”.
On to `NC(=O)c1ccc[n+]([C@@H]2O[C@H](CO)[C@@H](O)[C@H]2O)c1` [nicotinamide riboside], for which the “levels of engraftment in primary and secondary recipient humanised mice” value in the experiment with human HSCs was “significantly higher levels of engraftment”.
